Experimental data from PMC2704987 (Pharmacotherapy, 2009).
Where two headings read alike, the source gives them in different places. Blank lines part the entries; values can stand above or below the molecule they belong to.

Key:
[1] = oral azithromycin, 12 CF patients; cited from earlier work
[2] = cited from earlier work
[3] = adults, 150 mg/day; cited from earlier work
[4] = type: in vivo, human; conditions: for AUC / Cmax: human, plasma, po, 120 mg/m^2/day, oral erlotinib 120 mg/m^2/day (150 mg)
[5] = child with glioblastoma, cited from earlier work
[6] = children, 120 mg/m^2/day, range in parentheses; cited from earlier work
[7] = cited from earlier work; remark: listed apart in the source
[8] = cited from earlier work; remark: listed apart in the source
[9] = adults, 150 mg/day; cited from earlier work; remark: listed apart in the source
[10] = orally administered ganciclovir; cited from earlier work
[11] = cystic fibrosis patient, oral erlotinib 150 mg daily
[12] = adult patients with advanced malignant disease

Structure (SMILES): CC[C@H]1OC(=O)[C@H](C)[C@@H](O[C@H]2C[C@@](C)(OC)[C@@H](O)[C@H](C)O2)[C@H](C)[C@@H](O[C@@H]2O[C@H](C)C[C@H](N(C)C)[C@H]2O)[C@](C)(O)C[C@@H](C)CN(C)[C@H](C)[C@@H](O)[C@]1(C)O [azithromycin]
Cmax, Tmax, and AUC values, CF patients versus healthy volunteers [1]: similar
absorption rate constant (ka) and absolute bioavailability (F), CF patients versus healthy volunteers [1]: no statistically significant difference

ka (absorption rate constant) ([4]; cystic fibrosis patient, oral erlotinib 120 mg/m^2/day): 1.51 h^−
VdERL (apparent volume of distribution of erlotinib) ([4]; cystic fibrosis patient, oral erlotinib 120 mg/m^2/day, with pancrelipase): 60.4 L/m^2
Apparent clearance of erlotinib [4, 11]: 4.9 L/h/m^2
Apparent volume of distribution of erlotinib [4, 11]: 60.4 L
rate of erlotinib absorption (ka) [4, 11]: 1.51 h⁻¹
absorption of orally administered erlotinib in a cystic fibrosis patient ([4]; given concomitantly with pancreatic enzymes replacement therapy): not affected
AUC ([4]; Day 1 AUCERL, cystic fibrosis patient, day 1, plasma): 18800 ng·h/mL
Cmax ([4]; Day 1 Cmax, cystic fibrosis patient, day 1, plasma): 1440 ng/mL
AUC ([4]; Day 8 AUCERL, cystic fibrosis patient, day 8 (steady state)): 25700 ng·h/mL
Cmax ([4]; Day 8 Cmax, cystic fibrosis patient, day 8, plasma): 1460 ng/mL
Structure (SMILES): C#Cc1cccc(Nc2ncnc3cc(OCCOC)c(OCCOC)cc23)c1 [erlotinib]
bound to plasma proteins [2]: 95%
Day 1 AUCERL [3]: 16.54 ± 11.02 µg·h/mL
Day 1 AUCERL ([5]; 70 mg/m^2/day): 19.4 µg·h/mL
Day 8 AUCERL ([5]; 70 mg/m^2/day): 32.6 µg·h/mL
ka ([5]; 70 mg/m^2/day): 0.59 h^−
penetration of erlotinib into the CSF ([5]; oral erlotinib): modest
Day 1 AUCERL [6]: 22.6 (18.2–27) mcg*h/mL
Day 1 Cmax [6]: 1260 (490–2020) ng/mL
Day 8 AUCERL [6]: 29.5 (12–47) mcg*h/mL
half-life [7, 12]: 10 to 36 h
time to maximum concentration (Cmax) after dose administration [7, 12]: 2 to 4 h
bioavailability after oral administration with food ([7]; adults, administration with food): ≥ 100%
elimination in feces ([7]; adults, biliary excretion): 63%
bioavailability after oral administration ([7]; adults, without food): approximately 60%
elimination in urine ([7]; adults): 13%
solubility in water and methanol [8]: poor
Day 1 AUCERL [9]: 19.4 ± 10 µg·h/mL

Structure (SMILES): Nc1nc(O)c2ncn(COC(CO)CO)c2n1 [ganciclovir]
pharmacokinetic parameters in post-lung transplant patients with CF [10]: predictable
